In ChEMBL document CHEMBL5335778, “Bench-to-bedside: Innovation of small molecule anti-SARS-CoV-2 drugs in China” (Eur J Med Chem, 2023):

Assays:
Format in all cases: functional, organism-based
SARS-CoV-2 [1] = test: Antiviral activity against SARS-CoV-2 variant Omicron BA.2 infected in African green monkey Vero E6 cells assessed as reduction in virus-induced cytopathic effect; settings: Severe acute respiratory syndrome coronavirus 2, Omicron BA.2, Vero C1008
SARS-CoV-2 [2] = test: Antiviral activity against SARS-CoV-2 Omicron BA1 variant infected in human A549-ACE2 cells assessed as reduction in viral load measured upto 4 days by viral plaque assay; settings: Severe acute respiratory syndrome coronavirus 2, A549-ACE2, 96 h
SARS-CoV-2 [3] = test: Antiviral activity against SARS-CoV-2 Omicron BA1 variant infected human A549-ACE2 cells assessed as inhibition of viral replication; settings: Severe acute respiratory syndrome coronavirus 2, Omicron BA1, A549-ACE2

Row | Compound | EC50 (SARS-CoV-2 [1]) | other results
1 | N#Cc1ccccc1-c1cc(-c2cc(Cl)cc(OCC3CC3)c2)c(=O)n(-c2cccnc2)c1 | 17.1 nM | –
2 | CC(C)(C)OC(=O)Nc1cccn([C@@H](CC2CC2)C(=O)N[C@@H](C[C@@H]2CCNC2=O)C(=O)C(=O)NCc2ccccc2)c1=O | 17.1 nM | –
3 | C[C@H](NC(=O)[C@@H](c1cccnc1)N(C(=O)C(Cl)Cl)c1ccc(-c2ccccc2)cc1)c1ccccc1 | 21.7 nM | –
4 | COc1cccc2[nH]c(C(=O)N[C@@H](CC(C)C)C(=O)N[C@@H](C[C@@H]3CCCNC3=O)C(=O)COC(=O)c3c(C(F)(F)F)cccc3C(F)(F)F)cc12 | 21.7 nM | –
5 | COc1ccc2cc1Oc1ccc(cc1)C[C@H]1c3c(cc4c(c3Oc3cc5c(cc3OC)CCN(C)[C@@H]5C2)OCO4)CCN1C [CEPHARANTHINE] | – | EC50 (SARS-CoV-2 [2]): 100 nM
6 | Br.[2H]c1cc([C@]2(C#N)O[C@H](COC(=O)C(C)C)[C@@H](OC(=O)C(C)C)[C@H]2OC(=O)C(C)C)n2ncnc(N)c12 [DEUREMIDEVIR HYDROBROMIDE] | – | EC50 (SARS-CoV-2 [3]): 300 nM
7 | C[C@H](OC(C)(C)C)[C@H](NC(=O)OCc1ccccc1)C(=O)N[C@@H](CC1CCCCC1)C(=O)N[C@H](C=O)C[C@@H]1CCNC1=O | 21.7 nM | –
8 | C[C@H](NC(=O)[C@@H](c1cccnc1)N(C(=O)c1ccco1)c1ccc(-c2ccccc2)cc1)c1ccccc1 | 21.7 nM | –
9 | COc1cccc2[nH]c(C(=O)N[C@@H](CC(C)C)C(=O)N[C@@H](C[C@@H]3CCNC3=O)C(=O)CO)cc12 [PF-00835231] | 21.7 nM | –
10 | CSc1ccc2c(c1)NC(=O)C(F)(F)C2=O | 17.1 nM | –
11 | O=C1N(c2cncc3ccccc23)CNC12CC(c1ccccc1Cl)C2 (centres undefined) | 17.1 nM | –
12 | CC(C)C[C@H](NC(=O)OCc1ccccc1)C(=O)N[C@@H](C[C@@H]1CCNC1=O)C(O)S(=O)(=O)O (some centres undefined) | 21.7 nM | –
13 | CC(C)C[C@H](NC(=O)c1cc2c(F)cccc2[nH]1)C(=O)NN(C[C@@H]1CCNC1=O)C(=O)[C@@H](F)Cl | 17.1 nM | –
14 | CC(C)C[C@H](NC(=O)OCC1C[C@H]2CCC[C@@H](C1)C2)C(=O)N[C@H](C=O)C[C@@H]1CCNC1=O (some centres undefined) | 21.7 nM | –
